{
  "source": "patent US20210239681A1",
  "about": "“COMPOSITIONS AND METHODS FOR […] OF […]-BASED IMMUNOTHERAPEUTICS” (ADVAXIS, INC., priority 2018, published 2021)",
  "type_in_all_cases": "cell-based, human",
  "key": {"[1]": {"test_system": "E7 (11-20) specific T cells", "test": "Initial THP-1 / T cell co-culture cytokine production (T cell culture with 6% E7 (11-20) specific T cells)", "design": "IFNγ / TNF-α / IL-10 / IL-12p70 / IL-13 / IL-1β / IL-2 / IL-4 / IL-6 / IL-8: unit not given here", "details": "T cells and THP-1 incubated with peptide one hour; overnight co-culture", "description": "(§1) Analysis Kits and Reagents: Analysis of cytokine concentrations in culture medium used the U-plex assay kits from Meso Scale Discovery. Expression of T cell receptors specific for E7 peptide bound to HLA-A*02:01 was detected using HLA-A*02:01/peptide tetramers from MBL International (Woburn, Mass.).\nInfection of THP-1: The THP-1 cell line was infected with either ADXS11-001 or XFL7 by incubating 10^6 cells with dilutions of bacteria in a 1 mL volume of RPMI 1640 10% FBS. Incubation with bacteria was at 37° C., 5% CO2 for the indicated times, then extracellular bacteria were eliminated by washing and incubation in the presence of 50 μg/mL gentamicin for 1 hour at 37° C. After incubation with gentamicin the cells were washed again and resuspended to the desired cell concentration.\n(§2) T cell cytokine expression analysis. An initial experiment using THP-1 as antigen presenting cells was performed using a T cell culture containing 6% E7 (11-20) specific T cells based upon staining with HLA-A*02:01/peptide tetramer. THP-1 cells were infected as described using two different concentrations of bacteria and then co-cultured with the T cells. Controls included uninfected THP-1 cells and THP-1 cells incubated with (exposed to) either the 9mer or 10mer peptide for one hour. After an overnight co-culture, medium was collected for analysis of cytokines."}, "THP-1 cells [2]": {"test_system": "THP-1 cells", "test": "Cytokine production by THP-1 in the absence of T cells", "design": "IL-6: unit not given here", "description": "as §1\nInfection of THP-1: The THP-1 cell line was infected with either ADXS11-001 or XFL7 by incubating 10^6 cells with dilutions of bacteria in a 1 mL volume of RPMI 1640 10% FBS. […] After incubation with gentamicin the cells were washed again and resuspended to the desired cell concentration.\nas §2\n(§3) To further explore the importance of the overnight incubation of infected THP-1, THP-1 cells infected overnight were compared to THP-1 cells infected for 2 hours. T cells specific for 9mer and 10mer peptides were co-cultured with each of the THP-1 cells and with uninfected or peptide exposed THP-1. As before, medium was collected after an overnight co-culture and cytokines were measured.\nTitration studies with different multiplicity of infection (MOI). THP cells were infected for 2 hours with 3 different dilutions (MOI) of Listeria. Infected or uninfected THP cells were then cultured overnight for 24 hours before co-culturing the T cells. Cells were co-cultured overnight before cytokine analysis."}, "10mer specific T cells": {"test_system": "10mer specific T cells", "test": "Co-culture of THP-1 with 10mer specific T cells, cytokine production", "design": "IFNγ / IL-10 / IL-13 / IL-1β / IL-2 / IL-5 / IL-6 / TNF-α: unit not given here", "details": "for IFNγ production, with 10mer specific T cells: Listeria MOI of 10, optical density", "description": "as §1\n(§4) There were several possible explanations for the muted response with THP-1 cells infected with ADSX11: including failure of THP-1 cells to process the 10mer epitope from full length E7 protein, failure of the THP-1 cells to present the processed 10mer E7 peptide on HLA-A*02:01, insufficient incubation of the infected cells to allow synthesis of the E7 protein and accumulation of the MHC/peptide complex on the cell surface, and/or an inhibitory effect of gentamicin. A culture of T cells specific for the 9mer epitope was used as well as a new culture of 10mer specific T cells. The THP-1 cells were infected as before with XFL7 or ADXS11-001 at an MOI of 10. After treatment with gentamicin for one hour, the cells were cultured overnight in the absence of gentamicin. The next day the infected cells were collected and co-cultured with 9mer or 10mer specific T cells. These co-cultures were set up in standard X-VIVO 15 and X-VIVO 15 without gentamicin or phenol red. The co-cultures were incubated overnight before collecting medium for cytokine analysis. The medium was tested for IFNγ concentrations and optical density. […] In addition, the 10mer specific T cells recognized ADXS11-001 infected THP-1 when there was no gentamicin in the medium.\nas §3\n(§5) Optimization of infection time required for E7 presentation. THP-1 infected and cultured overnight compared to THP-1 infected for 2 hours and used after gentamicin treatment. Both 9-mer specific T cells and 10-mer specific T cells used. Assays were performed using X-VIVO 15 medium without gentamicin. The following cytokines were measured: IFNγ, IL-1β, IL-2, IL-10, IL-12p70, IL-13, IL-5, IL-6, TNFα."}, "9mer specific T cells": {"test_system": "9mer specific T cells", "test": "Co-culture of THP-1 with 9mer specific T cells, cytokine production", "design": "IFNγ / IL-10 / IL-12p70 / IL-13 / IL-1β / IL-2 / IL-5 / IL-6 / TNF-α: unit not given here", "details": "for IFNγ production, with 9mer specific T cells: Listeria MOI of 10, optical density", "description": "as §1, §4, §3, §5"}, "PBMC": {"test_system": "PBMC", "test": "Cytokine release by donor PBMC cultured with peptide", "design": "unit not given beside the values", "details": "release on antigen", "description": "Peripheral blood mononuclear cells (PBMCs) samples were collected from three human HLA-A*02:01 donors: 358, 213, and 224. The peripheral blood mononuclear cells (PBMCs) were cultured with one of two E7 peptides: […] (9mer or 1T; SEQ ID NO: 100) or […] (10mer or 2T; SEQ ID NO: 101). After 10 days culture, the PBMCs were tested for E7 peptide binding staining and cytokine release."}, "T cells": {"test_system": "T cells", "test": "Intracellular cytokine staining of T cells", "details": "Brefeldin A, FIG. 9", "description": "(§6) To identify cytokines that can be used to measure potency of a Listeria-based therapeutic the following tests were performed. Intracellular cytokine staining was used to detect T cells specificity. THP-1 were incubated with peptide overnight, mixed with T cells from above and centrifuged. The collected cells were then co-cultured at 37° C. for 1 hour. Brefeldin A was then added and the cells were co-cultured for another 4 hours. Brefeldin A inhibits secretion and permits analysis by flow cytometry. Cell were then stained to identify dead cells and CD8+ cells. The cell were then fixed and stained for IFNγ (using fix and permeabilization buffer from eBioscience/Invitrogen)."}, "THP-1 cells [3]": {"test_system": "THP-1 cells", "test": "Intracellular cytokine staining of THP-1 cells", "details": "FIGS. 3A-3C, FIG. 10", "description": "as §6\nIntracellular cytokine staining of THP-1 cells."}, "THP-1 cells [4]": {"test_system": "THP-1 cells", "test": "Cytokine production by THP-1 in the absence of T cells", "details": "Without gentamicin; Listeria MOI of 10; optical density"}, "[5]": {"details": "THP-1 incubated with peptide, absence of T cells"}, "[6]": {"details": "10mer T cells + peptide exposed THP-1, overnight co-culture"}, "[7]": {"details": "9mer T cells + peptide exposed THP-1, overnight co-culture"}},
  "data": [
    {"substance": "YMLDLQPET [9mer]", "values": [
      {"measurement": "IFNγ", "setting": "[1]", "value": 1508.2},
      {"measurement": "IL-1β", "setting": "[1]", "value": 1.0},
      {"measurement": "IL-2", "setting": "[1]", "value": 3.7},
      {"measurement": "IL-4", "setting": "[1]", "value": 0.2},
      {"measurement": "IL-6", "setting": "[1]", "value": 4.2},
      {"measurement": "IL-8", "setting": "[1]", "value": 405.7},
      {"measurement": "IL-10", "setting": "[1]", "value": 2.1},
      {"measurement": "IL-12p70", "setting": "[1]", "value": "<LLOD"},
      {"measurement": "IL-13", "setting": "[1]", "value": 120.3},
      {"measurement": "TNF-α", "setting": "[1]", "value": 57.1},
      {"measurement": "IFNγ production, THP-1 alone", "setting": "THP-1 cells [2]; 50 μg/mL gentamicin, Listeria MOI of 10, optical density", "value": 0.064},
      {"measurement": "IFNγ", "setting": "THP-1 cells [2]; THP-1 alone, peptide exposed", "value": "<LLOD"},
      {"measurement": "IL-1β", "setting": "THP-1 cells [2]; THP-1 alone, peptide exposed", "value": "<LLOD"},
      {"measurement": "IL-2", "setting": "THP-1 cells [2]; THP-1 alone, peptide exposed", "value": "<LLOD"},
      {"measurement": "IL-5", "setting": "THP-1 cells [2]; THP-1 alone, peptide exposed", "value": "<LLOD"},
      {"measurement": "IL-6", "setting": "THP-1 cells [2]; THP-1 alone, peptide exposed", "value": "<LLOD"},
      {"measurement": "IL-10", "setting": "THP-1 cells [2]; THP-1 alone, peptide exposed", "value": "<LLOD"},
      {"measurement": "IL-12p70", "setting": "THP-1 cells [2]; THP-1 alone, peptide exposed", "value": "<LLOD"},
      {"measurement": "IL-13", "setting": "THP-1 cells [2]; THP-1 alone, peptide exposed", "value": "<LLOD"},
      {"measurement": "TNF-α", "setting": "THP-1 cells [2]; THP-1 alone, peptide exposed", "value": 0},
      {"measurement": "IFNγ", "setting": "THP-1 cells [2]; [5]", "value": "<LLOD"},
      {"measurement": "IL-1β", "setting": "THP-1 cells [2]; [5]", "value": 0.0},
      {"measurement": "IL-2", "setting": "THP-1 cells [2]; [5]", "value": "<LLOD"},
      {"measurement": "IL-4", "setting": "THP-1 cells [2]; [5]", "value": "<LLOD"},
      {"measurement": "IL-6", "setting": "THP-1 cells [2]; [5]", "value": "<LLOD"},
      {"measurement": "IL-8", "setting": "THP-1 cells [2]; [5]", "value": 7.3},
      {"measurement": "IL-10", "setting": "THP-1 cells [2]; [5]", "value": "<LLOD"},
      {"measurement": "IL-12p70", "setting": "THP-1 cells [2]; [5]", "value": "<LLOD"},
      {"measurement": "IL-13", "setting": "THP-1 cells [2]; [5]", "value": "<LLOD"},
      {"measurement": "TNF-α", "setting": "THP-1 cells [2]; [5]", "value": "<LLOD"},
      {"measurement": "IFNγ production, with 10mer specific T cells", "setting": "10mer specific T cells; 50 μg/mL gentamicin", "value": 0.063},
      {"measurement": "IFNγ", "setting": "10mer specific T cells; [6]", "value": 103},
      {"measurement": "IL-1β", "setting": "10mer specific T cells; [6]", "value": "<LLOD"},
      {"measurement": "IL-2", "setting": "10mer specific T cells; [6]", "value": "<LLOD"},
      {"measurement": "IL-5", "setting": "10mer specific T cells; [6]", "value": "<LLOD"},
      {"measurement": "IL-6", "setting": "10mer specific T cells; [6]", "value": "<LLOD"},
      {"measurement": "IL-10", "setting": "10mer specific T cells; [6]", "value": 0},
      {"measurement": "IL-12p70", "setting": "10mer specific T cells; [6]", "value": "<LLOD"},
      {"measurement": "IL-13", "setting": "10mer specific T cells; [6]", "value": "<LLOD"},
      {"measurement": "TNF-α", "setting": "10mer specific T cells; [6]", "value": "<LLOD"},
      {"measurement": "IFNγ production, with 10mer specific T cells", "setting": "10mer specific T cells; Without gentamicin", "value": 0.062},
      {"measurement": "IFNγ production, with 9mer specific T cells", "setting": "9mer specific T cells; 50 μg/mL gentamicin", "value": 0.177},
      {"measurement": "IFNγ", "setting": "9mer specific T cells; [7]", "value": 4713},
      {"measurement": "IL-1β", "setting": "9mer specific T cells; [7]", "value": 0},
      {"measurement": "IL-2", "setting": "9mer specific T cells; [7]", "value": 18},
      {"measurement": "IL-5", "setting": "9mer specific T cells; [7]", "value": 0},
      {"measurement": "IL-6", "setting": "9mer specific T cells; [7]", "value": 13},
      {"measurement": "IL-10", "setting": "9mer specific T cells; [7]", "value": 1},
      {"measurement": "IL-12p70", "setting": "9mer specific T cells; [7]", "value": 0},
      {"measurement": "IL-13", "setting": "9mer specific T cells; [7]", "value": 3},
      {"measurement": "TNF-α", "setting": "9mer specific T cells; [7]", "value": 74},
      {"measurement": "IFNγ production, with 9mer specific T cells", "setting": "9mer specific T cells; Without gentamicin", "value": 0.117},
      {"measurement": "IFNγ Mean", "setting": "PBMC; donor 213 PBMC cultured with 1T peptide", "value": 242.6},
      {"measurement": "IFNγ Mean", "setting": "PBMC; donor 358 PBMC stimulated with 1T", "value": 1642.7},
      {"measurement": "IFNγ Mean", "setting": "PBMC; donor 358 PBMC stimulated with 2T", "value": 352.4},
      {"measurement": "IFNγ in T cells after stimulation with peptide", "setting": "T cells", "value": "detected"},
      {"measurement": "Basal IFNγ in THP-1 cells after stimulation with peptide", "setting": "THP-1 cells [3]", "value": "not detectable"},
      {"measurement": "IFNγ production, THP-1 alone", "setting": "THP-1 cells [4]", "value": 0.059}
    ]},
    {"substance": "gentamicin", "values": [
      {"measurement": "effect of gentamicin in the culture medium on antigen presentation", "setting": "10mer specific T cells; Listeria-based infection of THP-1, 50 μg/mL", "value": "inhibits expression of E7 or antigen presentation"}
    ]}
  ]
}
